Test results published in patent publication EP1978023A1, “Pyridazines as fungicides” (Bayer CropScience Aktiengesellschaft, priority 2007, dated 2008).

Assays:
[1] = HPLC reversed-phase C 18; 40°C; 0.1% aqueous formic acid and acetonitrile, linear gradient 10% to 95% acetonitrile
Source text: (§1) Die Kalibrierung wurde jeweils mit unverzweigten Alkan-2-onen (3 bis 16 Kohlenstoff Atome) mit bekannten logP Werten durchgeführt (Bestimmung von den logP Werten über die Retentionszeiten durch lineare Interpolation zwischen zwei bestimmten Alkanonen).

Source text for physchem: as §1

| Compound | chromatographic logP (physchem) | log p [1] |
| --- | --- | --- |
| CC1(O)OC(=O)C(c2cccs2)=C1c1ccc(Cl)s1 (stereo not shown) [(3), 4-(5-Chlor-2-thienyl)-3-(2-thienyl)-5-hydroxy-5-methylfuran-2(5H)-on] | 2.9 |  |
| Cc1n[nH]c(=O)c(-c2cccs2)c1-c1ccc(Cl)s1 [(4), 5-(5-Chlor-2-thienyl)-4-(2-thienyl)-6-methylpyridazin-3(2H)-on] | 2.71 |  |
| Cc1nnc(Cl)c(-c2cccs2)c1-c1ccc(Cl)s1 [Beispiel 11, 3-Chlor-5-(5-chlor-2-thienyl)-4-(2-thienyl)-6-methylpyridazin] | 3.56 | 3,56 |
